Each structure is given as a SMILES string. Where two headings read alike, the source gives them in different places.

For one assay, the target named is T1, hERG ion channel (Homo sapiens, UniProt Q12809).
T1 construct: Chinese Hamster Ovary cell lines stably expressing the full-length ion channel; expressed in transfected cells
Put plainly: hERG ion channel inhibition (Patchliner automated patch-clamp, CHO cells). The settings on record: whole-cell, room temperature, 6-point curve up to 100 µM. The format is cell-based. As for the experimental part: The compounds were tested for inhibition of hERG ion channel. 6-Point concentration-response curves were generated on the Patchliner automated patch-clamp using serial dilutions from a maximum test concentration of 100 µM.
Compounds were solubilised to 33 mM in DMSO before dilution in HBPS to 100 µM. 6-Point concentration-response curves were generated using serial dilutions from the top test concentration. Electrophysiological recordings were made from a Chinese Hamster Ovary cell lines stably expressing the full-length ion channel. Single cell ionic currents were measured in whole-cell configuration at room temperature (21-23° C.) using a Patchliner (Nanion Technologies). The internal solution for hERG contained (mM): 120 KF, 20 KCl, 10 EGTA, 10 HEPES and was buffered to pH 7.3. The external solution (HEPES-buffered saline, HBPS) contained (mM): 138 NaCl, 4.5 KCl, 1.8 CaC12, 1.0 MgC12, 10 HEPES, 10 glucose, buffered to pH7.4. Cells were clamped at a holding potential of -80 mV before a depolarising step appropriate for the hERG channel. Currents were measured from the step and referenced to the holding current. Compounds were incubated for 90 seconds. Concentration-response curves were generated by cumulative addition of compound with concentrations low to high. In all cases, steady-state inhibition was achieved before the next concentration of compound was added.
IC50 values were obtained from a 4-parameter logistic fit of the concentration-response data: […]

For assay [1], the system named is stimulated primary human T cells. Description: T cell proliferation assay (rescue of proliferation in presence of ATP, CFSE dilution). Format: cell-based. Particulars: 100 uM ATP.

T1 sequence (Q12809 whole entry): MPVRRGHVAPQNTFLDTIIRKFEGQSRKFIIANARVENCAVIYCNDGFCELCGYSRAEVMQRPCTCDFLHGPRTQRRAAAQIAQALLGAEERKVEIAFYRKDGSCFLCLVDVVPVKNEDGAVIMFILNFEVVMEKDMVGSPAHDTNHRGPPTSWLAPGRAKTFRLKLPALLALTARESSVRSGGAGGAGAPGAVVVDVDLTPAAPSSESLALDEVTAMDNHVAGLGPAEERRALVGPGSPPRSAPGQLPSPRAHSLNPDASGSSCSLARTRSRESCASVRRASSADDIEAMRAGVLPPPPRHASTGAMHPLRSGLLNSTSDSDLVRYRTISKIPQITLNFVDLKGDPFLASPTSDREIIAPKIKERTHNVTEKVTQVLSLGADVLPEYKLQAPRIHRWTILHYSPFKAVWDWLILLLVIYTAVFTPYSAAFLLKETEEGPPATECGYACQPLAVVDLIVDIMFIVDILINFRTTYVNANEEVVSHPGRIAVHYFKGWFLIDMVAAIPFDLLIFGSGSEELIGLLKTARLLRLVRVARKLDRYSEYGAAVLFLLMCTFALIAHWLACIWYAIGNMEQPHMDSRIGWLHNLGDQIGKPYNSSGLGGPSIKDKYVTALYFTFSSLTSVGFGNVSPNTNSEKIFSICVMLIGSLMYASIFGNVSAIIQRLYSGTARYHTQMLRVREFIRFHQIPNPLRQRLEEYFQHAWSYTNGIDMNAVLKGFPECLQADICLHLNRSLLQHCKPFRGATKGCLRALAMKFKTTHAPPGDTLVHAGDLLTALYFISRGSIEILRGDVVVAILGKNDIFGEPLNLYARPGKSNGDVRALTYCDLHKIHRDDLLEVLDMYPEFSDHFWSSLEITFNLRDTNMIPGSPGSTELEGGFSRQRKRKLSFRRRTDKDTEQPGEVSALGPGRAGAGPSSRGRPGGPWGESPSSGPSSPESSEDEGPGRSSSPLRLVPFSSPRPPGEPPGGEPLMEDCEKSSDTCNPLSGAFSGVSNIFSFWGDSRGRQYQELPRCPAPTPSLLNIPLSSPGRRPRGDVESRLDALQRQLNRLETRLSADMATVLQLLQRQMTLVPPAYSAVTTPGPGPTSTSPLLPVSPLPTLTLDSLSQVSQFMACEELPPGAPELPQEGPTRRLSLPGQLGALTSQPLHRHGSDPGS

As to `COc1cc(C(=O)O[C@H]2CCCOc3cc(cc(OC)c3OC)C(=O)OCCCN3CCCN(CC2)CC3)cc(OC)c1OC` [Compound 2, (12S)-74,75-dimethoxy-6-oxo-5,8-dioxa-1(1,4)-diazepana-7(1,3)-benzenacyclotetradecaphane-12-yl 3,4,5-trimethoxybenzoate], the IC50 against hERG ion channel is 2500 nM; in assay [1] (Condition A: X-VIVO15, read-out: T Cell proliferation (Condition A) IC50), 20 to 500 nM; in assay [1] (Condition B: X-VIVO15, 2% HSA and 0,1% AAG, read-out: (2) T Cell proliferation (Condition B) IC50), 20 to 500 nM.
